Source: the NIST ThermoML archive (doi:10.1016/j.jct.2011.05.003)
± gives the expanded uncertainty stated by the source.

Assay: xn = mol fraction of the nth substance listed
Conditions: Liquid; for speed of sound: 101 kPa, Sing-around technique in a fixed-path interferometer; for mass density: 101.3 kPa, Vibrating tube method

## CCCNCCC [dipropylamine] + CCCCCC(C)=O
293.15 K, x2 = 0.0603
  speed of sound: 1213.9 ± 1.2 m/s
  mass density: 743.175 ± 0.24 kg/m3
293.15 K, x2 = 0.1045
  speed of sound: 1217.2 ± 1.2 m/s
  mass density: 746.717 ± 0.24 kg/m3
293.15 K, x2 = 0.1559
  speed of sound: 1221 ± 1.2 m/s
  mass density: 750.817 ± 0.24 kg/m3
293.15 K, x2 = 0.2013
  speed of sound: 1224.3 ± 1.2 m/s
  mass density: 754.413 ± 0.24 kg/m3
293.15 K, x2 = 0.2526
  speed of sound: 1228.1 ± 1.2 m/s
  mass density: 758.468 ± 0.24 kg/m3
293.15 K, x2 = 0.2936
  speed of sound: 1231.1 ± 1.2 m/s
  mass density: 761.7 ± 0.24 kg/m3
293.15 K, x2 = 0.3492
  speed of sound: 1235.2 ± 1.2 m/s
  mass density: 766.042 ± 0.24 kg/m3
293.15 K, x2 = 0.4579
  speed of sound: 1243 ± 1.2 m/s
  mass density: 774.494 ± 0.24 kg/m3
293.15 K, x2 = 0.493
  speed of sound: 1245.6 ± 1.2 m/s
  mass density: 777.204 ± 0.24 kg/m3
293.15 K, x2 = 0.5494
  speed of sound: 1249.6 ± 1.2 m/s
  mass density: 781.554 ± 0.24 kg/m3
293.15 K, x2 = 0.5894
  speed of sound: 1252.6 ± 1.2 m/s
  mass density: 784.624 ± 0.24 kg/m3
293.15 K, x2 = 0.6478
  speed of sound: 1256.9 ± 1.2 m/s
  mass density: 789.087 ± 0.24 kg/m3
293.15 K, x2 = 0.6896
  speed of sound: 1259.9 ± 1.2 m/s
  mass density: 792.266 ± 0.24 kg/m3
293.15 K, x2 = 0.7615
  speed of sound: 1265.1 ± 1.2 m/s
  mass density: 797.717 ± 0.24 kg/m3
293.15 K, x2 = 0.8025
  speed of sound: 1268 ± 1.2 m/s
  mass density: 800.833 ± 0.24 kg/m3
293.15 K, x2 = 0.8139
  speed of sound: 1268.8 ± 1.2 m/s
  mass density: 801.69 ± 0.24 kg/m3
293.15 K, x2 = 0.8993
  speed of sound: 1275 ± 1.2 m/s
  mass density: 808.079 ± 0.24 kg/m3
293.15 K, x2 = 0.948
  speed of sound: 1278.4 ± 1.2 m/s
  mass density: 811.684 ± 0.24 kg/m3
298.15 K, x2 = 0.0521
  speed of sound: 1191.8 ± 1.2 m/s
  mass density: 738.054 ± 0.24 kg/m3
298.15 K, x2 = 0.1048
  speed of sound: 1196 ± 1.2 m/s
  mass density: 742.273 ± 0.24 kg/m3
298.15 K, x2 = 0.1557
  speed of sound: 1199.8 ± 1.2 m/s
  mass density: 746.324 ± 0.24 kg/m3
298.15 K, x2 = 0.2
  speed of sound: 1203.2 ± 1.2 m/s
  mass density: 749.853 ± 0.24 kg/m3
298.15 K, x2 = 0.2526
  speed of sound: 1207.1 ± 1.2 m/s
  mass density: 754.005 ± 0.24 kg/m3
298.15 K, x2 = 0.2962
  speed of sound: 1210.4 ± 1.2 m/s
  mass density: 757.449 ± 0.24 kg/m3
298.15 K, x2 = 0.3436
  speed of sound: 1213.9 ± 1.2 m/s
  mass density: 761.173 ± 0.24 kg/m3
298.15 K, x2 = 0.385
  speed of sound: 1217 ± 1.2 m/s
  mass density: 764.422 ± 0.24 kg/m3
298.15 K, x2 = 0.4478
  speed of sound: 1221.7 ± 1.2 m/s
  mass density: 769.307 ± 0.24 kg/m3
298.15 K, x2 = 0.5427
  speed of sound: 1228.8 ± 1.2 m/s
  mass density: 776.662 ± 0.24 kg/m3
298.15 K, x2 = 0.6436
  speed of sound: 1236.4 ± 1.2 m/s
  mass density: 784.41 ± 0.24 kg/m3
298.15 K, x2 = 0.69
  speed of sound: 1239.8 ± 1.2 m/s
  mass density: 787.95 ± 0.24 kg/m3
298.15 K, x2 = 0.7418
  speed of sound: 1243.6 ± 1.2 m/s
  mass density: 791.892 ± 0.24 kg/m3
298.15 K, x2 = 0.8061
  speed of sound: 1248.5 ± 1.2 m/s
  mass density: 796.768 ± 0.24 kg/m3
298.15 K, x2 = 0.8548
  speed of sound: 1252 ± 1.2 m/s
  mass density: 800.432 ± 0.24 kg/m3
298.15 K, x2 = 0.8993
  speed of sound: 1255.3 ± 1.2 m/s
  mass density: 803.773 ± 0.24 kg/m3
298.15 K, x2 = 0.9528
  speed of sound: 1259.1 ± 1.2 m/s
  mass density: 807.724 ± 0.24 kg/m3
298.15 K, x2 = 0.6003
  mass density: 781.222 ± 0.24 kg/m3
303.15 K, x2 = 0.0578
  speed of sound: 1172.1 ± 1.2 m/s
  mass density: 733.883 ± 0.24 kg/m3
303.15 K, x2 = 0.1054
  speed of sound: 1175.8 ± 1.2 m/s
  mass density: 737.733 ± 0.24 kg/m3
303.15 K, x2 = 0.1579
  speed of sound: 1179.9 ± 1.2 m/s
  mass density: 741.943 ± 0.24 kg/m3
303.15 K, x2 = 0.2005
  speed of sound: 1183.2 ± 1.2 m/s
  mass density: 745.356 ± 0.24 kg/m3
303.15 K, x2 = 0.2497
  speed of sound: 1187.1 ± 1.2 m/s
  mass density: 749.277 ± 0.24 kg/m3
303.15 K, x2 = 0.2951
  speed of sound: 1190.6 ± 1.2 m/s
  mass density: 752.865 ± 0.24 kg/m3
303.15 K, x2 = 0.3476
  speed of sound: 1194.7 ± 1.2 m/s
  mass density: 756.998 ± 0.24 kg/m3
303.15 K, x2 = 0.3856
  speed of sound: 1197.7 ± 1.2 m/s
  mass density: 759.993 ± 0.24 kg/m3
303.15 K, x2 = 0.4504
  speed of sound: 1202.6 ± 1.2 m/s
  mass density: 765.062 ± 0.24 kg/m3
303.15 K, x2 = 0.5442
  speed of sound: 1209.8 ± 1.2 m/s
  mass density: 772.346 ± 0.24 kg/m3
303.15 K, x2 = 0.5891
  speed of sound: 1213.4 ± 1.2 m/s
  mass density: 775.815 ± 0.24 kg/m3
303.15 K, x2 = 0.642
  speed of sound: 1217.3 ± 1.2 m/s
  mass density: 779.872 ± 0.24 kg/m3
303.15 K, x2 = 0.687
  speed of sound: 1220.8 ± 1.2 m/s
  mass density: 783.319 ± 0.24 kg/m3
303.15 K, x2 = 0.7413
  speed of sound: 1225 ± 1.2 m/s
  mass density: 787.465 ± 0.24 kg/m3
303.15 K, x2 = 0.7994
  speed of sound: 1229.4 ± 1.2 m/s
  mass density: 791.897 ± 0.24 kg/m3
303.15 K, x2 = 0.8564
  speed of sound: 1233.7 ± 1.2 m/s
  mass density: 796.191 ± 0.24 kg/m3
303.15 K, x2 = 0.8993
  speed of sound: 1236.9 ± 1.2 m/s
  mass density: 799.423 ± 0.24 kg/m3
303.15 K, x2 = 0.9497
  speed of sound: 1240 ± 1.2 m/s
  mass density: 803.188 ± 0.24 kg/m3
